# Results reported in article PMC6338644 (The FASEB Journal, 2018).
# pIC50: −log10 of the molar value. Values joined by “and” are separate entries in the source; they are usually repeats but may differ in a detail not shown here. Equal values may be shown once. Where a name gives a salt, the structure may show the parent alone.
# Key:
# db/db mice = conditions: cited from earlier work
# [1] = biological target: T1, His-tagged human SHIP1 phosphatase domain (Homo sapiens, UniProt Q92835); experiment: Malachite green phosphate assay, recombinant SHIP1 phosphatase domain (High Throughput Biomedicine Unit); format: biochemical; conditions: for pIC50: purified His-tagged phosphatase domain
# T1 construct: Recombinant His-tagged human SHIP2 and SHIP1 phosphatase domains were produced as previously described; His; made in house
# T1 sequence (Q92835 399-715 limits assumed): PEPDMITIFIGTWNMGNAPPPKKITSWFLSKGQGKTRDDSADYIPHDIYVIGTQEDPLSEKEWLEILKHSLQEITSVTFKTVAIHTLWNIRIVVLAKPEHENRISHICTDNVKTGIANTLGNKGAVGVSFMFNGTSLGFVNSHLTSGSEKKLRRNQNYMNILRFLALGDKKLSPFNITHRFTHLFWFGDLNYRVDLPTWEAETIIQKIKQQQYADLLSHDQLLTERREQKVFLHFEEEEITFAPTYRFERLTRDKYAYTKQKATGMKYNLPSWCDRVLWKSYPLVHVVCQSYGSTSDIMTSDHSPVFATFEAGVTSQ
# Description: Recombinant His-tagged human SHIP2 and SHIP1 phosphatase domains were produced as previously described ([17]). […] Immunocomplexes were bound to protein G-Sepharose beads at +4°C for 2 h and washed 3 times with malachite green phosphate assay buffer {10 mM 4-(2-hydroxyethyl)-1-piperazineethanesulfonic acid (HEPES), pH 7.25, 6 mM MgCl2, 0.1% 3-[(3-cholamidopropyl)dimethylammonio]-1-propanesulfonate (CHAPS), 250 mM sucrose, and 0.25 mM EDTA}.
# The catalytic activities of the recombinant SHIP2 and SHIP1 phosphatase domains were determined by malachite green phosphate assay at the High Throughput Biomedicine Unit (University of Helsinki) using D-myo-PI(3,4,5)P3 (Echelon Biosciences, Salt Lake City, UT, USA). Different volumes, resulting in desired final concentrations of inhibitors, were transferred to the wells of 384-well plates by using the Echo550 acoustic dispenser (Labcyte, San Jose, CA, USA). Recombinant protein (100 ng) in reaction buffer {10 mM HEPES, pH 7.25, 6 mM MgCl2, 0.1% CHAPS, 250 mM sucrose, and 0.25 mM EDTA} was placed in each well (7.5 µl), and the plates were preincubated at room temperature for 15 min. The phosphatase reaction was started by adding PI(3,4,5)P3 diluted in the reaction buffer (7.5 µl) to each well to reach a final concentration of 100 µM PI(3,4,5)P3 in the 15 µl reaction volume. The plates were incubated at room temperature for 20 min, after which, 15 µl BIOMOL green reagent (Biomol, Plymouth Meeting, PA, USA) was added to each well, and then the plates were incubated for another 25 min at room temperature. Absorbance was measured at 620 nm using a Pherastar FS plate reader (BMG Labtech, Offenburg, Germany). For the manual malachite green phosphate assay in 96-well plates [see Fig. 1; and activity measurement of phosphatase and tensin homolog (PTEN; Signalchem, Richmond, BC, Canada)], the reaction volume was increased to 50 µl, and 100 µl Biomol Green Reagent was added. The catalytic activity of SHIP2 immunoprecipitated from cell and tissue lysates was determined as in Saurus et al. ([22]), omitting SHIP2 inhibitors in lysis buffer, immunoprecipitation reaction, wash, and assay buffers. AS1949490 was synthesized, as described in Supplemental Fig. S1A, or purchased from Tocris Bioscience (Bristol, United Kingdom).
# SHIP2 expression level = experiment: Immunoblot of SHIP2 expression in cultured cells; format: cell-based, rat, human; conditions: 2 mM, 20–24 h; myotubes, podocytes, hepatoma cells
# Description: Rat L6 myoblasts (American Type Culture Collection, Manassas, VA, USA) and hepatoma cells (Fao Cells, Culture Collection; Public Health England, Salisbury, United Kingdom) were maintained according to the provider’s instructions. L6 myoblasts stably expressing hemagglutinin-GLUT4-green fluorescent protein (HA-GLUT4-GFP, referred to as L6-GLUT4) were generated, as previously described ([19]). Immortalized human podocytes were maintained as previously described ([10]). Lentiviral infection was used to overexpress or knock down transiently SHIP2 in cultured cells on d 10–12 of differentiation for 48 h (basal level) or 72 h (insulin stimulation), as previously described ([10], [20]). Human pLKO1-short hairpin RNA (shRNA) SHIP2 ([sequence]) was obtained from Functional Genomics Unit, University of Helsinki. […] Podocytes were lysed as previously described ([21]). Myotubes, hepatoma cells, and tissues were lysed and immunoblotting performed as in Tolvanen et al. ([19]) with anti-SHIP2 and anti-AMPK (Santa Cruz Biotechnology, Dallas, TX, USA); anti-phospho (p)Akt (S473), anti-pAMPK (Thr172), anti-AMPK, and anti-cleaved caspase-3 (Cell Signaling Technology, Danvers, MA, USA); anti-Pan Akt (R&D Systems, Minneapolis, MN, USA); anti-tubulin, anti-Glut4, and anti-Glut1 (MilliporeSigma, Burlington, MA, USA); and anti-actin (Abcam, Cambridge, United Kingdom).
# [2] = system: SHIP2-overexpressing podocytes; experiment: Apoptosis of SHIP2-overexpressing podocytes (cleaved caspase-3 immunoblot, Annexin V flow cytometry); format: cell-based, human; conditions: 2 mM, 48 h
# Description: Immortalized human podocytes were maintained as previously described ([10]). Lentiviral infection was used to overexpress or knock down transiently SHIP2 in cultured cells on d 10–12 of differentiation for 48 h (basal level) or 72 h (insulin stimulation), as previously described ([10], [20]). […] Apoptosis was measured by flow cytometry using the Annexin V-FITC Apoptosis Kit (Becton Dickinson, Franklin Lakes, NJ, USA) and double staining with 7-aminoactinomycin D (Becton Dickinson), as previously described ([10]). Podocytes were lysed as previously described ([21]). Myotubes, hepatoma cells, and tissues were lysed and immunoblotting performed as in Tolvanen et al. ([19]) with anti-SHIP2 and anti-AMPK (Santa Cruz Biotechnology, Dallas, TX, USA); anti-phospho (p)Akt (S473), anti-pAMPK (Thr172), anti-AMPK, and anti-cleaved caspase-3 (Cell Signaling Technology, Danvers, MA, USA); anti-Pan Akt (R&D Systems, Minneapolis, MN, USA); anti-tubulin, anti-Glut4, and anti-Glut1 (MilliporeSigma, Burlington, MA, USA); and anti-actin (Abcam, Cambridge, United Kingdom).
# Cell lysates were subjected to immunoblot analysis with anti-SHIP2, anti-cleaved caspase-3, and anti-actin IgGs. […] B, C) Quantification of SHIP2 and cleaved caspase-3 levels in A, normalized to actin. […] Apoptosis was measured by flow cytometry using Annexin V-FITC and 7-aminoactinomycin D (7AAD) double staining. […]
# [3] = system: Immortalized human podocytes; experiment: Glucose uptake assay in podocytes; format: cell-based
# Description: (§1) Immortalized human podocytes were maintained as previously described ([10]). […] Podocytes were lysed as previously described ([21]).
# (§2) Glucose uptake assay and On-Cell Western were performed essentially as in Tolvanen et al. ([19]). […] Cells were transferred on ice; incubated with anti-HA IgG in serum-free medium for 15 min, followed by additional incubation in fresh cell differentiation medium for 15 min at +37°C; and fixed with 2% paraformaldehyde for 20 min. Cells were incubated with IRDye 800 donkey anti-mouse IgG and nuclear marker DRAQ-5 (Thermo Fisher Scientific). Detection and quantitation were performed with the Odyssey Infrared Imager (Li-Cor Biosciences, Lincoln, NE, USA).
# (§3) L6-GLUT4 myotubes overexpressing SHIP2 were treated and glucose uptake performed as described in C. […] Time point 15 min indicates the amount of HA detected on the cells after 15 min internalization.
# L6-GLUT4 myotubes = experiment: Glucose uptake assay in L6-GLUT4 myotubes; format: cell-based, rat; conditions: metformin 2 mM
# Description: as §1, §2, §3
# [4] = system: HA-GLUT4-GFP at the plasma membrane of L6-GLUT4 cells; experiment: On-Cell Western and HA-GLUT4-GFP endocytosis assay in L6-GLUT4 cells; format: cell-based, rat; conditions: 20–24 h
# Description: as §2
# C) Knockdown of SHIP2 reduces metformin-induced glucose uptake. […] L6-GLUT4 myotubes overexpressing SHIP2 were treated and glucose uptake performed as described in C. […] Time point 15 min indicates the amount of HA detected on the cells after 15 min internalization.
# [5] = system: Akt phosphorylation (pAkt S473); experiment: Immunoblot of Akt phosphorylation in cultured cells; format: cell-based, rat, human; conditions: 2 mM, 20–24 h
# Description: Lentiviral infection was used to overexpress or knock down transiently SHIP2 in cultured cells on d 10–12 of differentiation for 48 h (basal level) or 72 h (insulin stimulation), as previously described ([10], [20]). […] Podocytes were lysed as previously described ([21]). Myotubes, hepatoma cells, and tissues were lysed and immunoblotting performed as in Tolvanen et al. ([19]) with anti-SHIP2 and anti-AMPK (Santa Cruz Biotechnology, Dallas, TX, USA); anti-phospho (p)Akt (S473), anti-pAMPK (Thr172), anti-AMPK, and anti-cleaved caspase-3 (Cell Signaling Technology, Danvers, MA, USA); anti-Pan Akt (R&D Systems, Minneapolis, MN, USA); anti-tubulin, anti-Glut4, and anti-Glut1 (MilliporeSigma, Burlington, MA, USA); and anti-actin (Abcam, Cambridge, United Kingdom).
# Cell lysates were subjected to immunoblot analysis with anti-SHIP2, anti-cleaved caspase-3, and anti-actin IgGs. […] Cell lysates were subjected to immunoblot analysis with anti-SHIP2, anti-Akt, anti-pAkt, and anti-actin IgGs. G) Quantification of pAkt levels in F presented as pAkt/Akt after normalizing to actin. Data are presented as the mean ± SD of 3–5 independent experiments. *P ≤ 0.05, **P ≤ 0.01, ***P ≤ 0.001 (Student’s t test).
# PCK1 and G6Pase mRNA = experiment: Quantitative RT-PCR of gluconeogenesis genes in db/db mice; format: in vivo, mouse; conditions: 250 mg/kg per day, 12 d
# Description: At the end of the experiment, mice were euthanized. […]
# The expression levels of the rate-
# analyzed by quantitative RT-PCR (n=6).
# internal controls for liver and kidney, respectively. The bars show the mean expres sion in arbitrary
# [6] = system: podocytes in kidneys of patients with T2D; experiment: Podocyte number per glomerulus (WT1-positive cells) in patient kidneys; format: in vivo, human; conditions: compared with people without T2D; WT1-positive cells per glomeruli
# Description: The use of human material was approved by the local Ethics Committee, and written, informed consent was received from study participants. Paraffin sections were stained with anti-SHIP2 (I-20) as in Hyvonen et al. ([10]) or anti- Wilms tumor protein 1 (WT1; Santa Cruz Biotechnology) using the Brightvision Poly-HRP-anti-Rabbit IgG kit (ImmunoLogic, Amsterdam, The Netherlands) and 3,3′-diaminobenzidine (Dako Cytomation, Carpinteria, CA, USA). Slides were counterstained with hematoxylin and digitally scanned with 3DHistech Pannoramic 250 FLASH II (3DHistech, Budapest, Hungary) at the Genome Biology Unit (University of Helsinki). Quantification of SHIP2 staining intensity was performed with the HistoQuant module (3DHistech). Podocyte number was estimated by counting the number of WT1-positive cells per glomerular cross-section in 10 glomeruli per patient in a blinded manner, as described in Guo et al. ([24]). Only glomeruli larger than 170 µm in diameter were examined to ensure sectioning through the center of each glomerulus.
# Kidney samples were lysed, and the enzymatic activity of immunoprecipitated SHIP2 was analyzed by malachite green phosphate assay (n = 4–7). […] Ten randomly chosen glomeruli were analyzed from each patient (n = 6–7). […] Podocyte number per glomeruli was quantified by counting WT1-positive cells. Ten randomly chosen glomeruli were analyzed from each patient (n = 9–30).
# [7] = 20–24 h, insulin 100 nM, 15 min
smiles,measurement,setting,value
C[C@H](NC(=O)c1sccc1OCc1ccc(Cl)cc1)c1ccccc1 [AS1949490],PCK1 expression in db/db mice,db/db mice,reduce
same,blood glucose in db/db mice,db/db mice; short-term treatment,reduced
same,insulin sensitivity in db/db mice,db/db mice; short-term treatment,improved
same,SHIP1 Inhibition efficiency,"[1]; inhibitors at 100 µM concentration, 100 µM",12% and 11.8%
same,pIC50,[1],< 4.30
"CN(C)C(=N)N=C(N)N [Metformin, 1,1-Dimethylbiguanide hydrochloride]",effect on SHIP2 expression level in cultured cells,SHIP2 expression level,no effect
same,cleaved caspase-3 level in SHIP2-overexpressing podocytes,[2],back to the level in the control
same,"level of apoptosis (Annexin V, flow cytometry) in SHIP2-overexpressing podocytes",[2],back to the level of the control
same,increase in glucose uptake in podocytes,[3],52%
same,"increase in glucose uptake in podocytes, metformin together with insulin",[3],80%
same,inhibition of SHIP1 (in words),[1],does not inhibit
same,inhibition at 100 µM,"[1]; inhibitors at 100 µM concentration, read-out: SHIP1 Inhibition efficiency",11.1%
same,pIC50,[1],< 4.30
same,"increase in insulin-stimulated glucose uptake, SHIP2 knockdown","L6-GLUT4 myotubes; SHIP2 shRNA, 20–24 h, insulin 100 nM, 15 min",109%
same,increase in glucose uptake in L6-GLUT4 myotubes,"L6-GLUT4 myotubes; control shRNA, 20–24 h, insulin 100 nM, 15 min",148%
same,increase in glucose uptake in empty vector-transfected myotubes,L6-GLUT4 myotubes; [7],155%
same,"increase in insulin-stimulated glucose uptake, SHIP2 overexpression",L6-GLUT4 myotubes; [7],76%
same,increase in glucose uptake in L6-GLUT4 cells,"L6-GLUT4 myotubes; 20–24 h, serum-starved",218%
same,"glucose uptake in L6-GLUT4 cells, metformin together with insulin","L6-GLUT4 myotubes; 20–24 h plus insulin 100 nM, 15 min",did not have an additive effect
same,increase in amount of HA-GLUT4-GFP on the PM,"[4]; L6-GLUT4 cells, basal conditions, 2 mM",40%
same,decrease in amount of HA-GLUT4-GFP on the PM after 15 min uptake (endocytosis),[4]; metformin 2 mM,10%
same,insulin-induced Akt phosphorylation in SHIP2-overexpressing podocytes,"[5]; insulin 200 nM, 15 min",restored its activity
same,Akt phosphorylation (activity) in basal state,[5]; myotubes and podocytes,did not increase
same,G6Pase mRNA level in kidney,PCK1 and G6Pase mRNA,increased
same,G6Pase mRNA level in liver,PCK1 and G6Pase mRNA,decreased
same,PCK1 mRNA level in kidney,PCK1 and G6Pase mRNA,increased
same,PCK1 mRNA level in liver,PCK1 and G6Pase mRNA,decreased
same,podocyte loss in metformin-receiving patients,[6],11%
